Source: publication PMC2430034, “Structural Development Studies of Subtype-Selective Ligands for Peroxisome Proliferator-Activated Receptors (PPARs) Based on the 3,4-Disubstituted Phenylpropanoic Acid Scaffold as a Versatile Template” (PPAR Research, 2008)
Read-outs that look alike come from different tables or passages of the source.

Experiments:
Type in all cases: cell-based
PPARγ [1] = target: T1, PPARγ (Homo sapiens, UniProt P37231); test: cell-based; details: PPAR-GAL4 chimeric receptors, transiently transfected HEK-293 cells; ia = inactive at 10 μM; read-out: Transactivation activity EC50 PPARγ
T1 sequence (P37231 238-505 limits assumed): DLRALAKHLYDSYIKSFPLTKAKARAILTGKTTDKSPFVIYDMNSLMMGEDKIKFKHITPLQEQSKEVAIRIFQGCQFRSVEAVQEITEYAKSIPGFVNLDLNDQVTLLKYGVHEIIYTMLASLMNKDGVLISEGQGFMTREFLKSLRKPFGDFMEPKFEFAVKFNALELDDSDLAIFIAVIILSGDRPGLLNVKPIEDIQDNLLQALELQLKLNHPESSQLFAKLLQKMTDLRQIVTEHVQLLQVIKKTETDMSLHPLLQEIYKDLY

PPARα [2] = target: T2, PPARα (Homo sapiens, UniProt Q07869); test: PPARα-GAL4 chimeric receptor transactivation in HEK-293 cells; details: PPAR-GAL4 chimeric receptors, transiently transfected HEK-293 cells; ia = inactive at 10 μM
T2 sequence (Q07869 200-468 limits assumed): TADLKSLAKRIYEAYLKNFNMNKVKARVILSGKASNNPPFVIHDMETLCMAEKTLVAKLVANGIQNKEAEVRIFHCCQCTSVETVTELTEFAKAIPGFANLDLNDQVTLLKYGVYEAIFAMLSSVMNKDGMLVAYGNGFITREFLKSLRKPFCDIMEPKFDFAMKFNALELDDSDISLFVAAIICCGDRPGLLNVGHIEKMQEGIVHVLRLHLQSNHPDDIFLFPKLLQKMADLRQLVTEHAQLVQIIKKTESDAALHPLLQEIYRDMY

PPARδ [3] = target: T3, PPARδ (Homo sapiens, UniProt Q03181); test: cell-based; details: PPAR-GAL4 chimeric receptors, transiently transfected HEK-293 cells; ia = inactive at 10 μM; read-out: Transactivation activity EC50 PPARδ
T3 sequence (Q03181 171-441 limits assumed): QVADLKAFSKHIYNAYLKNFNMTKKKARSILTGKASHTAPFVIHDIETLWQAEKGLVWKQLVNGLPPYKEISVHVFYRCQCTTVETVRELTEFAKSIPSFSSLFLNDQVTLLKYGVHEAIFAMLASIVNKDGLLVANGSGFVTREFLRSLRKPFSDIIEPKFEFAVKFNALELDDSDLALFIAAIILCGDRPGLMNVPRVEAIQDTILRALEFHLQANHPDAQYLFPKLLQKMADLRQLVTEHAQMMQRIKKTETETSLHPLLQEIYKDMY

PPARα [4] = target: T2, PPARα; test: PPARα-GAL4 chimeric receptor transactivation in CHO-K1 cells; details: PPAR-GAL4 chimeric receptors, transiently transfected CHO-K1 cells; ia = inactive at 10 μM; read-out: Transactivation activity EC50 PPARα
PPARγ [5] = target: T4, PPARγ (Homo sapiens, UniProt P37231); test: cell-based; details: PPAR-GAL4 chimeric receptors, transiently transfected CHO-K1 cells; ia = inactive at 10 μM; read-out: Transactivation activity EC50 PPARγ
T4 sequence (P37231 232-505 limits assumed): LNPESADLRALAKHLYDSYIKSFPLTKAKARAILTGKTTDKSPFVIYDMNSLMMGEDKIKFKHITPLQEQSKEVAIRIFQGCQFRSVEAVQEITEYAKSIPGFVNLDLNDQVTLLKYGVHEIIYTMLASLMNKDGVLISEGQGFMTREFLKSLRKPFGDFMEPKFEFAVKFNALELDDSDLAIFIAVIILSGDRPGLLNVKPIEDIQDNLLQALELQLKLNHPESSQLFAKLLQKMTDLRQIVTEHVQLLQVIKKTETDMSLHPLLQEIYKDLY

PPARδ [6] = target: T5, PPARδ (Homo sapiens, UniProt Q03181); test: cell-based; details: PPAR-GAL4 chimeric receptors, transiently transfected CHO-K1 cells; ia = inactive at 10 μM; read-out: Transactivation activity EC50 PPARδ
T5 sequence (Q03181 211-441 limits assumed): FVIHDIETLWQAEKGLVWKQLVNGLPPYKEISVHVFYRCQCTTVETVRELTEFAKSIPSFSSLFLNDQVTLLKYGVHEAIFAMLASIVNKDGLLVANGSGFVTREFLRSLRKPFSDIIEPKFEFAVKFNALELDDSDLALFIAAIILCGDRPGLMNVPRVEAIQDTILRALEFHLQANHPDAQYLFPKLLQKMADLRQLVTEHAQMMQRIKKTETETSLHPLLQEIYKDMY

PPARγ [7] = target: T6, PPARγ (Homo sapiens, UniProt P37231); test: Nuclear receptor cross-reactivity transactivation, PPARγ; details: concentrations up to 1 μM (Figure 4)
T6 construct: expressed in transfected cells
T6 sequence (P37231 1-505): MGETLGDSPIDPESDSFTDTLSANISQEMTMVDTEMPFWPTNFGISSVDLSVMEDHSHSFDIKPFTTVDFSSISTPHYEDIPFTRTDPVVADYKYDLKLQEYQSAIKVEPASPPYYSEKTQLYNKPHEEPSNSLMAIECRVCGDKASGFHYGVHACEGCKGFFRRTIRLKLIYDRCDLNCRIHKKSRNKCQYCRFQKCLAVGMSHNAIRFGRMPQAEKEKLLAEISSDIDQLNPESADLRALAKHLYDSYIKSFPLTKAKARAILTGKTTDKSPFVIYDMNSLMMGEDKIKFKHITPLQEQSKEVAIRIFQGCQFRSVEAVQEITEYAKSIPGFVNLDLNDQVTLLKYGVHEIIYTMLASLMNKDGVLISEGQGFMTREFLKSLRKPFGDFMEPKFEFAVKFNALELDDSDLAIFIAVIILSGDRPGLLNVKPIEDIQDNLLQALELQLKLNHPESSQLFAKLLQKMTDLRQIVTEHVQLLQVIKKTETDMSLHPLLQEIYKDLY

VDR = target: T7, VDR (Homo sapiens, UniProt P11473); test: Nuclear receptor cross-reactivity transactivation, VDR; details: concentrations up to 1 μM (Figure 4)
T7 construct: expressed in transfected cells
T7 sequence (P11473 1-427): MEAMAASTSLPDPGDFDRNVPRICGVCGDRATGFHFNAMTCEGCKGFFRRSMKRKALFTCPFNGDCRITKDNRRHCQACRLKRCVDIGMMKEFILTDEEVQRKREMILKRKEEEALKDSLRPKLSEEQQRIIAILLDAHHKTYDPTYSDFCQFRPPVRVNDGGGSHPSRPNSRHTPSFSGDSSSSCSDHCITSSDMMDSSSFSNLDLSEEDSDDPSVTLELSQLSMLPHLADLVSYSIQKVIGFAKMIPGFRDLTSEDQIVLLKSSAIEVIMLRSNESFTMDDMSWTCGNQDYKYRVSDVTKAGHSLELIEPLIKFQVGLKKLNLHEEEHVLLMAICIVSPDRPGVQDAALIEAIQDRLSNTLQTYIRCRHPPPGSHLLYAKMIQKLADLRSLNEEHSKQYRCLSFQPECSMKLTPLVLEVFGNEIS

LXRα = target: T8, LXRα (Homo sapiens, UniProt Q13133); test: Nuclear receptor cross-reactivity transactivation, LXRα; details: concentrations up to 1 μM (Figure 4)
T8 construct: expressed in transfected cells
T8 sequence (Q13133 1-447): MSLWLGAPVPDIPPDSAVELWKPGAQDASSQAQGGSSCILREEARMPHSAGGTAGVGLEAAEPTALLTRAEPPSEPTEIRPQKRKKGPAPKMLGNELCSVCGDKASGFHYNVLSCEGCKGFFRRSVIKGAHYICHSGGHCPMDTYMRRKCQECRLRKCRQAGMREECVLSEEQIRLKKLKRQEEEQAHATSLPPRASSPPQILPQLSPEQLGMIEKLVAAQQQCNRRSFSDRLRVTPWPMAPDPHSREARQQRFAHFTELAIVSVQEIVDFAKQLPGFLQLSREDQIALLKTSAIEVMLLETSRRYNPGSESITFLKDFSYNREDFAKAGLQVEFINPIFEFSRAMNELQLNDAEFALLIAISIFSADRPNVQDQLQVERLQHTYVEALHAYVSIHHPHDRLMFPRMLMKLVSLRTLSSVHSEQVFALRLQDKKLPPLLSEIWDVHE

RXRα = target: T9, RXRα (Homo sapiens, UniProt P19793); test: Nuclear receptor cross-reactivity transactivation, RXRα; details: concentrations up to 1 μM (Figure 4)
T9 construct: expressed in transfected cells
T9 sequence (P19793 1-462): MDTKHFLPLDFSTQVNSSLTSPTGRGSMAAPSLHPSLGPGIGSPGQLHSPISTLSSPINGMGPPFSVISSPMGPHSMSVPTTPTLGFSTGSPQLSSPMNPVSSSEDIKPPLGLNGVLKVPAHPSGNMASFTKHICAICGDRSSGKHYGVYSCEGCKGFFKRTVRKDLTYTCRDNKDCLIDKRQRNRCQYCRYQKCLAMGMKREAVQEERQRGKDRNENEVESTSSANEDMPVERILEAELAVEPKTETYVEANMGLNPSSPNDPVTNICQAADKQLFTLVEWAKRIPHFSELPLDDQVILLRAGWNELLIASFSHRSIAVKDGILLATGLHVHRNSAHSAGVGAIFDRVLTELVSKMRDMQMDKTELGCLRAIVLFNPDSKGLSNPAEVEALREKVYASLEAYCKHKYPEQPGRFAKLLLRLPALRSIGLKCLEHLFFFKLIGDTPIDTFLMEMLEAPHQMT

RARα = target: T10, RARα (Homo sapiens, UniProt P10276); test: Nuclear receptor cross-reactivity transactivation, RARα; details: concentrations up to 1 μM (Figure 4)
T10 construct: expressed in transfected cells
T10 sequence (P10276 1-462): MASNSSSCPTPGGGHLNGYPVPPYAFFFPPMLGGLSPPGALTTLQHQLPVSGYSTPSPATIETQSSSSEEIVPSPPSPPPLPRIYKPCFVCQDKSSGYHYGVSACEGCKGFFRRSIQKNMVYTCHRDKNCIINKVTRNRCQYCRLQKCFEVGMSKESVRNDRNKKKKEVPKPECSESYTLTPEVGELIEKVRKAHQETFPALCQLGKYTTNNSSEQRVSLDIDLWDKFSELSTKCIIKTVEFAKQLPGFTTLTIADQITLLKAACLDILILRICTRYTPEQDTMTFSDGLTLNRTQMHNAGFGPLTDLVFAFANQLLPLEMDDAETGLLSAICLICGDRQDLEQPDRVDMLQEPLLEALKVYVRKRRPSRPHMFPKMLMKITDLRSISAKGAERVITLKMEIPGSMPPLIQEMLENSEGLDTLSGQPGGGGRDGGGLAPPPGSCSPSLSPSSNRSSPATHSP

SMILES | EC50 (PPARγ [1]) | EC50 (PPARα [2]) | EC50 (PPARδ [3]) | EC50 (PPARα [4]) | EC50 (PPARγ [5]) | EC50 (PPARδ [6]) | activation of PPARγ (PPARγ [7]) | activation of VDR (VDR) | activation of LXRα (LXRα) | activation of RXRα (RXRα) | activation of RARα (RARα)
CCC(Cc1ccc(OC)c(CNC(=O)c2ccc(C(F)(F)F)cc2)c1)C(=O)O (racemic) [Compound 33] | 2600 nM | 19 nM | 200 nM | 40 nM | 10000 nM | 120 nM | – | – | – | – | –
CC[C@@H](Cc1ccc(OC)c(CNC(=O)c2ccc(C(F)(F)F)cc2F)c1)C(=O)O [Compound 41, (S)-2-{3-[(2-fluoro-4-trifluoromethylbenzoylamino)methyl]-4-methoxybenzyl}butyric acid] | 1900 nM | 10 nM | 12 nM | – | – | – | did not significantly activate | did not significantly activate | did not significantly activate | did not significantly activate | did not significantly activate
CCCOc1ccc(CC(CC)C(=O)O)cc1CNC(=O)c1ccc(C(F)(F)F)cc1 (centres unmarked) [Compound 51] | 1300 nM | 77 nM | 6.8 nM | – | – | – | – | – | – | – | –
CCCCOc1ccc(CC(CC)C(=O)O)cc1CNC(=O)c1ccc(C(F)(F)F)cc1 (centres unmarked) [Compound 52] | 1300 nM | 520 nM | 4.8 nM | – | – | – | – | – | – | – | –
CCCCCCOc1ccc(CC(CC)C(=O)O)cc1CNC(=O)c1ccc(C(F)(F)F)cc1 (centres unmarked) [Compound 53] | 2300 nM | 1200 nM | 45 nM | – | – | – | – | – | – | – | –
CCCOc1ccc(CC(CC)C(=O)O)cc1CNC(=O)c1ccc(C(F)(F)F)cc1F (centres unmarked) [Compound 56] | 650 nM | 41 nM | 1.7 nM | – | – | – | – | – | – | – | –
